# In US20210338684A1, “DIAGNOSTIC AND THERAPEUTIC METHODS FOR CANCER” (Genentech, Inc., priority 2016, published 2021):
# “Also recorded” adds a separate entry of the source.
# Legend:
# SMARCA2 = SMARCA2 expression (Taqman quantitative RT-PCR, Western blot); settings: for induction of SMARCA2 transcript and protein: 6 or 10 days
# ARID1A-mutant cell lines = assay: 3D Matrigel culture, acini formation; assay type: cell-based, human
# Protocol: Wells of a 24 well plated were coated with 70 μl Matrigel Matrix (Corning) and allowed to congeal at room temperature. Cells (n=5,000) were plated on top of the basement matrix in 400 μl RPMI+10% FBS containing 2% Matrigel matrix. Cells were treated with the respective compounds in 400 μl media to replenish the old media. Colonies were imaged on a Zeiss Axio Observer A1 microscope 10 days after the start of experiment.
# [1] = tested on: SMARCA4-mutant cancer cell lines; assay: Clonogenic assay (colony formation)
# [2] = tested on: ARID1A-mutant cancer cell lines; assay: Clonogenic assay (colony formation); assay type: cell-based, human
# Protocol: (§1) 1,800-5,000 cells were plated in each 6-well plate, according to the doubling time. 24 hours after plating, the medium was removed and replaced with medium containing EPZ-6438 at different concentrations. Fresh medium with EPZ-6438 was replaced every 3 to 4 days until control cells reached confluence to stop culture. For studies evaluating the effect of EZH2 knockout, cells were plated 7 days following puromycin selection. The medium was removed, and cells were washed with PBS and stained with 0.5% crystal violet for 20 minutes at room temperature. Dye was removed, cell monolayers were washed with water, and the plate was washed and photographed.
# [3] = tested on: SMARCA4-mutant cell lines; assay: Cell morphology after prolonged treatment; assay type: cell-based, human; settings: EPZ-6438-sensitive models, 21 days of treatment, 5 μM
# cathepsin B (CTSB) = assay: CTSB transcript and protein expression; assay type: cell-based, human; settings: TOV-112D control cells, 5 μM
# Protocol: For studies evaluating EPZ-6438 effects, cells were treated with various doses of EPZ-6438 for 6 days. On day 3, fresh medium containing EPZ-6438 was introduced. Cell pellets were lysed in RIPA buffer containing 1M NaCl and homogenized for 3 minutes at speed 10 (NextAdvance, Bullet Blender® 24). 12 μg or 18 μg protein was dissolved in 4-12% bis-Tris or 3-8% Tris-acetate gel and transferred to polyvinylidend difluoride (PVDF) membranes. IRDYE® secondary antibodies were used for detection by an Odyssey Imager (LI-COR). Total RNA was extracted using Qiagen RNeasy Plus Mini kit, according to the manufacturers protocol. Quality control of samples was performed to determine RNA quantity and quality prior to their processing by RNA-seq. The concentration of RNA samples was determined using NanoDrop 8000 (Thermo Scientific) and the integrity of RNA was determined by Fragment Analyzer (Advanced Analytical Technologies). 0.5 μg of total RNA was used as an input material for library preparation using TruSeq RNA Sample Preparation Kit v2 (Illumina). Size of the libraries was confirmed using 2200 TapeStation and High Sensitivity D1K screen tape (Agilent Technologies), and their concentration was determined by qPCR based method using Library quantification kit (KAPA). The libraries were multiplexed and sequenced on Illumina HiSeq2500 (Illumina) to generate 30M of single end 50 base pair reads.
# [4] = tested on: mono-, di-, and tri-methylated H3K27; assay: Western blot of H3K27 methylation in cells
# [5] = tested on: H3K27me3 at the SMARCA2 promoter; assay: H3K27me3 ChIP-PCR; assay type: cell-based, human; settings: TOV-112D cells
# Protocol: For each sample, 10×10^6 cells were harvested and washed with 1×PBS. Cells were fixed and sheared following the instructions provided with the truChlP Chromatin Shearing Reagent Kit (Covaris). Cells were fixed for 5 minutes with 1% formaldehyde and then quenched with quenching buffer for 5 minutes. Cells were then washed with cold 2×PBS. Nuclei were isolated and sheared using the Covaris AFA Focused-ultrasonicator for 20 minutes. The IP was conducted with 500 μg sheared chromatin and 10 μg anti-H3K27me3 (Active Motif cat #39155) or anti-Rabbit IgG. The Magna ChIP kit (Millipore) was used for IP. For each IP, a 50 μl mixture of Dynabeads protein A and G (50/50 mix) was incubated with primary antibody for 3 hours. The beads were added to 500 μg of sheared chromatin. The beads and antibodies were incubated overnight at 4° C. The beads were then washed with the following wash buffers: low salt, high salt, LiCI wash buffer, and TE Buffer. DNA was extracted from the beads in ChIP elution buffer with protease K at 64° C. with shaking overnight. DNA was then purified using the QIAquick PCR Purification Kit (Qiagen). DNA was eluted with 30 μl of water. 1.0 μl of eluted DNA was used for each SYBR green PCR reaction. SMARCA2 was amplified using the following primers: forward, […] (SEQ ID NO: 27); reverse, […] (SEQ ID NO: 28). […]
# TOV-21G tumor xenografts = assay: Xenograft study, tumor growth; assay type: in vivo, mouse; settings: SCID mice, 450 mg/kg BID, 28 days
# Protocol: (§2) TOV-21G and NCI-H522 cells (American Type Culture Collection, Manassas, Va.) were cultured in vitro and harvested in HBSS:Matrigel (BD Biosciences; Franklin Lakes, N.J.) (1:1, v:v) for subcutaneous inoculation into female mice. TOV-21G cells were inoculated into Fox Chase SCIO® Beige mice (Charles River Laboratories, San Diego, Calif.). NCI-H522 cells were inoculated into BALB/c Nude mice (Vital River Laboratories, Beijing, China). Mice bearing established tumors were separated into groups of equally sized tumors (n=5, minimum) to receive escalating doses of EPZ-6438. EPZ-6438 was formulated once weekly in 0.5% sodium carboxymethylcellulose and 0.1% tween-80 at concentrations needed for target doses in a volume of 0.2 ml. All formulations were stored at 4° C., brought to room temperature, and mixed by vortex before oral administration by gavage twice daily from Day 1 until the end of the study. Tumor volumes were calculated from perpendicular length and width caliper measurements using the formula:
# (§3) Tumor Volume (mm^3)=0.5×(Length×Width^2).
# (§4) A mixed modeling approach was used to analyze the repeated measurement of tumor volumes from the same animals over time. Cubic regression splines were used to fit a nonlinear profile to the time courses of log 2-transformed tumor volumes in each group. Fitting was done via a linear mixed-effects model, using the package “nlme” (version 3.1-97) in R version 2.13.0 (R Development Core Team 2008; R Foundation for Statistical Computing; Vienna, Austria). Fitted tumor volumes were plotted in the natural scale in Prism (version 5.0b for Mac) (GraphPad Software; La Jolla, Calif.).
# NCI-H522 xenografts = assay: Xenograft study, tumor growth; assay type: in vivo, mouse; settings: oral
# Protocol: as §2, §3, §4
# [6] = molecular target: SMARCA4-mutant EPZ-6438-sensitive models; assay: Senescence β-galactosidase staining; assay type: cell-based, human
# Protocol: (§5) Apoptosis was monitored through (a) live cell imaging analysis using the Incucyte Caspase-3/7 Apoptosis Assay (Essen Biosciences, Cat. No. 4440) or through a static time point assessment using the Caspase-Glo 3/7 Assay (Promega, G8090). For Incucyte-based assays (FIG. 4B), 300-600 cells (based on doubling time) were plated in 96-well plates, and at 24 hours, media was replaced with EPZ-6438-containing media at the indicated concentrations and Caspase 3/7 reagent (Essen Bioscience). Fresh media containing EPZ-6438 and Caspase 3/7 reagent was replaced every 3 to 4 days. Phase contrast and fluorescent images were collected every 3 hours, and the number of fluorescent objects were counted and analyzed according to the Incucyte protocol. Data are presented as Caspase 3/7 fluorescent counts normalized to DMSO control at the indicated time points. For determination of apoptosis by Caspase-Glo (FIG. 18C, 19G), TO[…] cells were plated at 500 cells per well in a 96 well plate and treated with the indicated concentrations of EPZ-6438 for 6 days. Caspase 3/7 activity was measured according to the manufacturer's instructions, and results were normalized to signal in DMSO control wells, when indicated. To evaluate senescence induction, cells were stained for β-galactosidase activity using the Senescence Cells Histochemical Staining Kit (Sigma), according to the manufacturers instructions.
# [7] = tested on: SMARCB1-mutant malignant rhabdoid tumor lines; assay: Clonogenic assay (colony formation); assay type: cell-based, human; settings: two SMARCB1-mutant malignant rhabdoid tumor lines
# Protocol: as §1
# SWI/SNF wild-type models = assay: Clonogenic assay (colony formation); assay type: cell-based, human; settings: panel (n=8) of cell lines wildtype for SWI/SNF complex genes
# Protocol: as §1
# [8] = tested on: H3K27 methylation in NCI-H522 tumor xenograft tissue; assay: Pharmacodynamic Western blot of xenograft tumor tissue; assay type: in vivo, mouse; settings: strongest at 450 mg/kg BID; day 7, three hours after dosing
# Protocol: (§6) Plasma and tumor samples for pharmacodynamic analysis were collected from tumor-bearing mice on day 7, 3 hours following the last dose. Tumor tissue was lysed in RIPA buffer containing 1M NaCl and homogenized for 3 minutes at speed 10 (NEXTADVANCE, BULLET BLENDER® 24) prior to Western blotting.
# [9] = tested on: H3K27me3 in TOV-21G tumor xenograft tissue; assay: as above; assay type: in vivo, mouse; settings: day 7, three hours following twice-daily oral administration
# Protocol: as §6
# TOV-112D cells = assay: Caspase 3/7 apoptosis assay; assay type: cell-based, human
# Protocol: as §5
# [10] = tested on: SMARCA4-mutant cell lines; assay: Caspase 3/7 apoptosis assay; assay type: cell-based, human; settings: several other models, prolonged exposure
# Protocol: as §5
# NCI-H522 cells = assay: Edu incorporation (DNA synthesis); assay type: cell-based, human; settings: 8 weeks of treatment, relative to resistant NCI-H1568
# [11] = OVTOKO and OVISE ARID1A-mutant cell lines
# [12] = SMARCA4-mutant cells resistant to EPZ-6438 (H1299, A549)
# [13] = SMARCA4-mutant cells sensitive to EPZ-6438 (SNU-484, TOV112D), dose-dependent
# [14] = COV434, SNU-484 and G401 cells expressing shBRM
structure (smiles),measurement,setting,value
Nc1ncn([C@H]2C[C@H](O)[C@@H](CO)O2)c(=O)n1 [5-aza-2′-deoxycytidine],SMARCA2 mRNA levels,SMARCA2; SMARCA4-mutant cells with repressed SMARCA2,did not impact
CCS(=O)(=O)N1CCC([C@@H](C)n2c(C)c(C(=O)NCc3c(OC)cc(C)[nH]c3=O)c3ccccc32)CC1 [CPI-169],acini formation,ARID1A-mutant cell lines; A2780 cells (positive control),inhibition of both clonogenic growth and acini formation
same,acini formation,ARID1A-mutant cell lines; [11],lack of activity
same,colony formation,[1]; [12],no effect
same,colony formation,[1]; [13],inhibited colony formation
same,differential sensitivity of colony formation,[2]; ARID1A-mutant versus ARID1A-WT ovarian cell lines,phenocopied
CCN(c1cc(-c2ccc(CN3CCOCC3)cc2)cc(C(=O)NCc2c(C)cc(C)[nH]c2=O)c1C)C1CCOCC1 [EPZ-6438],acini formation,ARID1A-mutant cell lines; A2780 cells (positive control),inhibition of both clonogenic growth and acini formation
same,acini formation,ARID1A-mutant cell lines; [11],lack of activity
same,morphologic changes (cell flattening and enlargement),[3],pronounced morphologic changes
same,induction of SMARCA2 transcript and protein,"SMARCA2; EPZ-6438-resistant SMARCA4-mutant cell lines, 5 μM",but not EPZ-6438-resistant
same,induction of SMARCA2,"SMARCA2; EPZ-6438-sensitive ARID1A-mutant A2780 cells, 5 μM, 6 days",induction of SMARCA2
same,induction of SMARCA2 transcript and protein,"SMARCA2; EPZ-6438-sensitive SMARCA4-mutant cell lines, 5 μM",strong induction
same,SMARCA2 levels,"SMARCA2; SMARCB1-mutant MRT line G401, 6 days, EPZ-6438 5 μM, 5-Aza 1 μM",induction in SMARCA2 levels
same,CTSB transcript and protein,cathepsin B (CTSB),strongly upregulated
same,inhibition of H3K27 methylation in cells expressing shBRM,[4]; [14],no effect on the ability of EPZ-6438 to inhibit H3K27 methylation
same,"inhibition of mono-, di-, and tri-methylated H3K27","[4]; EPZ-6438-sensitive and EPZ-6438-resistant cell lines, dose-dependent, 6-day treatment","inhibited mono-, di-, and tri-methylated H3K27 to a similar extent"
same,association of H3K27me3 with the SMARCA2 gene promoter,[5],significant decrease
same,tumor growth inhibition,TOV-21G tumor xenografts,tumor growth inhibition
same,tumor growth inhibition (TGI),NCI-H522 xenografts; 450 mg/kg BID,72%
same,inhibition of tumor growth,"NCI-H522 xenografts; twice daily (BID), 30, 100, 450 mg/kg, 23 days",dose-dependent inhibition of tumor growth
same,colony formation in cells expressing SMARCA2 shRNA (shBRM),[1]; [14],did not affect the ability of EPZ-6438 to inhibit colony formation
same,dose-dependent inhibition of colony formation in cells expressing shBRM,[1]; TOV-112D cells expressing shBRM,prevented the dose-dependent inhibition of colony formation
same,inhibition in colony formation,"[1]; panel of 11 SMARCA4-mutant cancer cell lines, increasing doses",dose-dependent inhibition in colony formation was observed in a subset
same,kinetics of senescence induction (homogenous β-galactosidase expression),[6]; COV434 model,homogenous expression of β-galactosidase by seven days
same,kinetics of senescence induction (homogenous β-galactosidase expression),[6]; NCI-HS22 cells,not observed until a few weeks
same,senescence-associated β-galactosidase expression,"[6]; some SMARCA4-mutant EPZ-6438-sensitive models, most notable in COV434 and NCI-HS22",Increases in senescence-associated β-galactosidase expression
same,inhibition in colony formation,[2]; panel of ARID1A-mutant cancer cell lines,inhibition in colony formation was observed in a subset
same,inhibition in colony formation,[7],inhibition in colony formation
same,activity on colony formation,SWI/SNF wild-type models,No activity; also recorded: No effect
same,H3K27me3 and H3K27me2 in tumor tissue,[8],reduction of H3K27me3 and H3K27me2
same,H3K27me3 in tumor tissue,[9],target inhibition
same,dose-dependent induction of apoptosis in cells expressing shBRM,"TOV-112D cells; TOV-112D cells expressing shBRM, 6 days",prevented
same,activation of caspase 3/7 in cells expressing shCTSB,TOV-112D cells; TOV-112D cells expressing shRNAs targeting CTSB,significantly suppressed
same,apoptotic response (caspase 3/7),"TOV-112D cells; TOV-112D cells, seven days of treatment",strong apoptotic response
same,apoptosis (caspase 3/7),[10],subpopulations of apoptotic cells
same,DNA synthesis / proliferative state by Edu incorporation,NCI-H522 cells,non-proliferative state; also recorded: inhibition of DNA synthesis
CC[C@H](C)n1cc(C)c2c(C(=O)NCc3c(C)cc(C)[nH]c3=O)cc(-c3ccc(N4CCNCC4)nc3)cc21 [GSK-126],colony formation,[1]; [12],no effect
same,colony formation,[1]; [13],inhibited colony formation
